Experimental data as given in patent US7790765B2, “Hydroxy sulfonate of quinone compounds and their uses” (ArQule, Inc., priority 2007, dated 2010).

Tests used:
[1] = reversion of Compound 1 to β-lapachone in dilute or buffered solution (UV-vis, HPLC); format: physicochemical
From the text: Thus, compound 1 also reverts back to β-lapachone under the conditions of high pH or when mixed with plasma. The hydroxy sulfonate of β-lapachone easily reverts back to β-lapachone in dilute solutions of bisulfite and other reagents. […] However, the mass by LC/MS for Compound 1 can be obtained using a short LC method where the acetonitrile/water mobile phase is acidified with 0.1% formic acid. Even under these conditions, two peaks are observed, one peak corresponding to Compound 1, and one to the β-lapachone released from the complex.

[2] = reversion of Compound 1 to β-lapachone in human plasma (UV-vis); format: in vitro ADME; conditions: diluted human plasma
From the text: Thus, compound 1 also reverts back to β-lapachone under the conditions of high pH or when mixed with plasma.

[3] = equilibrium solubility of β-lapachone with bisulfites, HPLC; format: physicochemical; conditions: 3-15 mg/mL sodium metabisulfite or sodium bisulfite in water or 2.5-5% HPβCD; shaken 24 hours
Method: Solutions of bisulfites at different concentrations were prepared in water or 2.5% HPβCD and an excess amount of β-lapachone was added to obtain a saturated solution. These solutions were shaken for 24 hours, filtered through a 0.45 μm filter, and analyzed for β-lapachone concentration by HPLC. The equilibrium solubility results, in the presence and absence of HPβCD, are illustrated in FIGS. 1A to 1C. Bisulfite can enhance the equilibrium solubility of β-lapachone depending on the concentration of the bisulfites. […] The solubility of the β-lapachone is directly proportional with the amounts of bisulfites added, until they reach respective saturation concentrations (See FIG. 1C).

[4] = maximum concentrations of β-lapachone converted to Compound 1 at different pHs; format: physicochemical
[5] = From the text: Methyl beta-cyclodextrin (MeβCD) is a derivative of beta-cyclodextrin with 1-7 methyl substituents on the secondary O-2 positions.
HPβCD with two different degrees of substitutions, 6.9 and 4.3, were compared in terms of β-lapachone solubility.

human cancer cell lines = conditions: single agent, typical range, read-out: antineoplastic activity (IC50); cited from earlier work
[6] = system: normal or proliferating human PBMC; conditions: cited from earlier work

| Structure (SMILES) | stability: reversion to β-lapachone ([1]; diluted in phosphate buffered saline at pH 7, UV-vis) | stability: reversion to β-lapachone ([1]; diluted with mobile phase of acetonitrile and phosphate buffer pH 6.8, HPLC) | stability: reversion to β-lapachone ([1]; dilution to 20-100 μM or less, or pH increased to 6-7 or higher in combination with dilution, UV-vis) | stability in human plasma: reversion to β-lapachone ([2]; pH 7) | stability in human plasma: reversion to β-lapachone ([2]; pH 7, listed as compound 1) | equilibrium solubility in aqueous solution [3] | Converted β-lapachone Conc. ([4]; Na2S2O5 5 mg/mL, pH of the formulation 3.01) [mg/mL] | Converted β-lapachone Conc. ([4]; Na2S2O5 5 mg/mL, pH of the formulation 4.46) [mg/mL] | Converted β-lapachone Conc. ([4]; Na2S2O5 5 mg/mL, pH of the formulation 7.04) [mg/mL] | Converted β-lapachone Conc. ([4]; NaHSO3 5 mg/mL, pH of the formulation 3.29) [mg/mL] | Converted β-lapachone Conc. ([4]; NaHSO3 5 mg/mL, pH of the formulation 4.52) [mg/mL] | Converted β-lapachone Conc. ([4]; NaHSO3 5 mg/mL, pH of the formulation 7.04) [mg/mL] | higher solubilizing effect of HPβCD of lower degree of substitution on β-lapachone solubility [5] | IC50 (human cancer cell lines) [µM] | cytotoxic effects [6] |
| --- | --- | --- | --- | --- | --- | --- | --- | --- | --- | --- | --- | --- | --- | --- | --- |
| CC1(C)CCC2=C(O1)c1ccccc1C(O)(S(=O)(=O)[O-])C2=O.[Na+] (stereo not drawn) [Compound 1, Sodium 6-hydroxy-2,2-dimethyl-5-oxo-3,4,5,6-tetrahydro-2H-benzo(h)chromene-6-sulfonate] | UV-vis spectrum become identical to that for a solution of β-lapachone | only the β-lapachone can be detected | converts Compound 1 back to β-lapachone | UV-vis spectrum become identical to that for a solution of β-lapachone | the only species present is β-lapachone |  |  |  |  |  |  |  |  |  |  |
| CC1(C)CCC2=C(O1)c1ccccc1C(=O)C2=O [β-lapachone, 3,4-dihydro-2,2-dimethyl-2H-naphtho[1,2-b]pyran-5,6-dione] |  |  |  |  |  | dramatically improve the solubility | 5.90 | 5.76 | 1.88 | 5.76 | 5.97 | 2.23 | 16-17% | 1 to 10 | No cytotoxic effects were observed |
